Data on three compounds can be found in patent US20030130249A1, “Therapeutic use of estrogen receptor (ER)beta-selective agonists for triggering somatotropic, organotropic and anticatabolic effects (somatotropic therapy)” (Schering AG, priority 2001, published 2003).

Holding throughout (assay type): in vivo, rat
For data set [1], the system named is gonads of male and female, sexually immature rats. Kind of data set: Effects on gonads and prostate of sexually immature rats (FIG. 3). Here is the method:
ERβ-selective properties can be studied in the case of female and male rats that are not sexually mature. […] In the case of a parenteral dose of 1 μg/animal/day, estradiol results in a complete inhibition of testicular growth. […] The action on the somatotropic functions, gonad functions and the genital tract was studied in infant, gonad-intact, male and female rats. Effects of ERβ-agon or ERβ-selective agonists (agon) (E2) on gonads of male and female, sexually immature rats in comparison to estradiol. Treatment of the young animals after weaning over 7 days (day 1-day 7, autopsy day 8, subcutaneous injection).

Data set [2] relates to uterus of adult rats that have undergone ovariectomies. Kind of data set: Uterotropic action in adult ovariectomized rats (FIG. 1). The note with it: for dose giving increase in uterus weight ("standard" estrogenic activity): treatment day 1-day 3, autopsy day 4. As to the method: The substances that are to be used according to the invention have very little action in terms of “standard estrogens.” Corresponding estrogenic properties can be examined in the rats that have undergone ovariectomy. In the case of parenteral administration, 17β-estradiol even at a dose of 0.1 μg results in an increase in uterus weight. […] These substances have a correspondingly small action on the parameters of hepatic estrogeneity, for example the increase of the angiotensinogen in the blood. To examine the action of the ERβ-selective agonists in the context according to the invention, their estrogenic action on the genital tract, liver functions, somatotropic factors and on the secretion of gonadotropins was examined in comparison to estradiol in adult rats that have undergone ovariectomies. Determination of the uterotropic action of an ERα- or ERβ-selective agonist (agon) in comparison to estradnol (E2) Study of adult rats that have undergone ovariectomies 14 days after the ovariectomies, treatment day 1-day 3, autopsy day 4, subcutaneous administration in 0.2 ml of vehicle.

The subject of data set [3] is IGF-I in the plasma from sexually immature rats with intact ovaries. The experiment in a line: IGF-I in the plasma of sexually immature rats (FIG. 4). As to conditions: 7 days subcutaneous, two tests with different dose ranges. From the text:
Effects of ERα- or ERβ-selective agonists (agon) on IGF-I in the plasma from sexually immature rats with intact ovaries in comparison to estradiol (E2). Treatment of the young animals after weaning over 7 days (day 1-day 7, autopsy day 8; subcutaneous injection) in two tests with different dose ranges.

In data set [4] the test system is body growth of sexually immature rats whose ovaries are intact. Kind of data set: Body growth of sexually immature rats (FIG. 7). As to conditions: immature rats with intact ovaries, 7 days subcutaneous. From the text: Effects of ERα- or ERβ-selective agonists (agon) on the body growth of sexually immature rats whose ovaries are intact in comparison to estradiol (E2). Treatment of the young animals after weaning over 7 days (day 1-day 7, autopsy day 8, subcutaneous injection) in two tests with different dose ranges.

The subject of data set [5] is cholesterol fractions in the plasma from sexually immature rats with intact ovaries. Kind of data set: Cholesterol fractions in the plasma of sexually immature rats (FIG. 5). As to conditions: 7 days subcutaneous. From the text: Effects of ERα- or ERβ-selective agonists (agon) on the cholesterol fractions in the plasma from sexually immature rats with intact ovaries in comparison to estradiol (E2). Treatment of the young animals after weaning over 7 days (day 1-day 7, autopsy day 8, subcutaneous injection) in two tests with different dose ranges.

Data set [6] has as its system adrenal glands and thymus of sexually immature rats with intact ovaries. Kind of data set: Organ weights of adrenal glands and thymus of sexually immature rats (FIG. 6). As to conditions: 7 days subcutaneous. An excerpt:
Effects of ERα- or ERβ-selective agonists (agon) on the development of the organ weights of the adrenal glands and the thymus of sexually immature rats with intact ovaries in comparison to estradiol (E2). Treatment of young animals after weaning over 7 days (day 1-day, 7, autopsy day 8, subcutaneous injection).

Data set [7] is described as follows: Plasma levels after one-time oral or subcutaneous administration to ovariectomized rats, RIA (FIG. 8). The note with it: one-time oral 1.0 mg or subcutaneous graduated dosages. Here is the method:
Plasma levels of the ERβ-selective agonist after a one-time oral or parenteral (subcutaneous injection) administration to ovariectomized rats, determinations 0.5; 1; 3; 6; 24 hours after oral administration of 1.0 mg (left) or 1; 2; 4; 6; 24 hours after subcutaneous administration of graduated dosages. Immunological determination by means of LCMS-validated Radio Immuno Assay (RIA).

Data set [8] concerns uterus and vagina of ovary-intact, sexually immature rats. Kind of data set: Effects on uterus and vagina in ovary-intact, sexually immature rats (FIG. 2). As to conditions: 7 days subcutaneous. From the text: The action on the somatotropic functions, gonad functions and the genital tract was studied in infant, gonad-intact, male and female rats. Effects of ERβ-agon or ERβ-selective agonists (agon) (E2) on the uterus and vagina in ovary-intact, sexually immature rats in comparison to estradiol. Treatment of the young animals after weaning over 7 days (day 1-day 7, autopsy day 8, subcutaneous injection) in two tests with different dose ranges.

Consider `C[C@]12CC[C@@H]3c4ccc(O)cc4CC[C@H]3[C@@H]1CC[C@@H]2O` [E2, estradiol, reference compound], for which, in data set [1] (parenteral), the “dose giving complete inhibition of testicular growth” value stood at 1 μg/animal/day. Further, the “dose giving increase in uterus weight ("standard" estrogenic activity)” value in data set [2] (subcutaneous) was 0.1 µg.
For the compound `C[C@]12CC[C@@H]3c4ccc(O)cc4CC[C@H]3[C@@H]1C[C@H]1OC(=O)C[C@]12O` [ERα-agon, 3,17β-dihydroxy-19-nor-17α-pregna-1,3,5(10)-triene-21,16α-lactone, reference compound], in data set [3], the “IGF-I in the plasma” value is listed as “No comparable effects”. The “body growth (weight increase) at higher dosages” value in data set [4] (higher dosages) is given as “considerable reduction of the weight increase”. Also, in data set [5] (high doses), the “HDL-cholesterol fraction in the plasma at high doses” value is “drop the HDL-cholesterol fraction”; the “total cholesterol in the plasma at high doses” value is “drop the HDL-cholesterol fraction and the total cholesterol”. For the same compound, in data set [6], the adrenal gland weight entry is on record as “less pronounced positive effects” and the thymus weight result is on record as “less pronounced positive effects”. In addition, in data set [6] (higher dosages), the “thymus weight at higher dosages” value was “reduction of the thymus weight”. For the same compound, the “induction of uterus growth” value in data set [2] (subcutaneous, compared with ERβ-agon) was “induce uterus growth in the case of much lower dosage than the ERβ-agon”.
For the compound `C=C[C@@]12CCc3cc(O)ccc3[C@H]1CC[C@@]1(C)[C@H]2CC[C@@H]1O` [ERβ-agon, 8β-vinyl-1,3,5(10)-estratriene-3,17β-diol], in data set [3], the “IGF-I in the plasma” value is given as “Statistically significant increase of the IGF-I”. Besides, the body growth result in data set [4] (two tests with different dose ranges) is reported as “accelerated growth of the animals via a broad dose range”. For the same compound, in data set [5] (broad dose range), the “HDL-cholesterol fraction in the plasma” value is reported as “increase of the HDL-cholesterol fraction” and the “total cholesterol in the plasma” value was “elevated plasma levels of the total cholesterol”. The “oral bioavailability (plasma levels)” value in data set [7] is given as “orally readily bioavailable”. The “growth of the prostate” value in data set [1] (7 days subcutaneous) was “acceleration of the growth of the prostate”. The testicular growth entry in data set [1] (7 days subcutaneous, autopsy day 8) was “stimulates testicular growth beyond the normal size, which is statistically significant”. The “testicular growth at high doses” value in data set [1] (high doses, 7 days subcutaneous) is “inhibition of the testicular growth”. In addition, the “weight development of the uterus and vagina” value in data set [8] (autopsy day 8) was “considerable effects on the weight development of the uterus and vagina in extremely low dosages”. Besides, the “effects on uterus and vagina weight compared with ERα-agon and E2” value in data set [8] (lowest tested dose) was “exceed those of ERα-agon, and E2 is statistically significant”. Moreover, in data set [6], the adrenal gland weight entry is listed as “increase of adrenal gland weight”; the thymus weight result is “increase of adrenal gland weight and thymus weight”. The “dose relative to estradiol for comparable uterotropic effect” value in data set [2] (parenteral, versus 0.1 μg of E2) came out at 1000 fold. Also, in data set [2] (subcutaneous), the “dose giving increase in uterus weight ("standard" estrogenic activity)” value is 100 µg.
